# Data: patent US20230339991A1, “HYPOXIA-ACTIVATED DNA ALKYLATING AGENT AND MEDICAL USE THEREOF” (ASCENTAWITS PHARMACEUTICALS, LTD., priority 2020, published 2023)
# Read-outs that look alike come from different tables or passages of the source.
# Legend:
# [1] = tested on: murine intestinal cancer CT26 subcutaneous model; assay: Murine intestinal cancer CT26 subcutaneous model; assay type: in vivo, BALB/c mice; conditions: 30 mg/kg, tail vein, twice a week
# Procedure: BALB/c mice were subcutaneously inoculated with murine intestinal cancer CT26 cells to establish a murine intestinal cancer subcutaneous transplantation model. […] Anti-mouse PD-1 Ab 10 mg/kg in the single treatment group and in the combination treatment group with compound C 30 mg/kg was administered by intraperitoneal injection twice a week.
# [2] = tested on: human lung cancer NCI-H460-Luc2 intracranial transplantation tumor; conditions: for mean biofluorescence value / TGI: 11 days after grouping
# Procedure: BALB/c nude mice were inoculated intracranially with human lung cancer NCI-H460-Luc2 cells to establish human lung cancer intracranial transplantation tumor model. […] The relative tumor inhibition rate TGI (%) was calculated based on tumor biofluorescence value and the efficacy was evaluated.
# H460 cancer cells = assay: Cytotoxicity on H460 cancer cells, 72 h exposure, CTG; assay type: cell-based; conditions: Homo sapiens, NCI-H460
# Procedure: The quantification value IC50 for cytotoxicity of a human tumor cell line in vitro was used to compare the cancer cell proliferation inhibition of compounds
# (§1) Compounds were exposed at various concentrations for 72 hours, followed by a wash step. Fresh medium was added for growth. The cell was stained to determine the cell survival rate and compared with controls treated with medium only.
# In particular, exponentially grown cells were inoculated in 96-well plates at a density of 2×10^3 cells/100 μl/well and incubated for 24 hours at 37° C. and under the conditions of 5% CO2, 95% air and 100% relative humidity before addition of 99 μl of culture solution. The compounds were dissolved in 100% DMSO at 200 times of the desired final test concentration. When the drug was added, an aliquot of 1 μl of the compound at the specified concentration was added to microwells already containing 199 μl of medium to obtain the reported final drug concentration. After adding the drug, plates were incubated for an additional 72 hours at 37° C., 5% CO2, 95% air and 100% relative humidity. The cell assay plate was left to balance for 30 minutes at room temperature and 100 μL of medium was removed from per well. 100 μl CTG reagent (CelltiterGlo kit) was added into each well. […] The chemiluminescence signal value was read by Envision instrument.
# NCI-H522 = assay: Cytotoxicity, NSCLC cell line NCI-H522; assay type: cell-based; conditions: Homo sapiens
# Procedure: as §1
# (§2) In particular, exponentially grown cells were inoculated in 96-well plates at a density of 2×10^3 cells/100 μl/well and incubated for 24 hours at 37° C. and under the conditions of 5% CO2, 95% air and 100% relative humidity before addition of 99 μl of culture solution. The compounds were dissolved in 100% DMSO at 200 times of the desired final test concentration. When the drug was added, an aliquot of 1 μl of the compound at the specified concentration was added to microwells already containing 199 μl of medium to obtain the reported final drug concentration. After adding the drug, plates were incubated for an additional 72 hours at 37° C., 5% CO2, 95% air and 100% relative humidity. The cell assay plate was left to balance for 30 minutes at room temperature and 100 μL of medium was removed from per well. 100 μl CTG reagent (CelltiterGlo kit) was added into each well. The plate was placed on a fast shaker and shaked for 2 min, and kept in dark at room temperature for 30 min. The chemiluminescence signal value was read by Envision instrument. […]
# NCIH1755 = assay: Cytotoxicity, NSCLC cell line NCIH1755; assay type: cell-based; conditions: Homo sapiens, NCI-H1755
# Procedure: as §1, §2
# AsPC-1 = assay: Cytotoxicity, pancreatic cancer PA cells AsPC-1; assay type: cell-based; conditions: Homo sapiens, ASPC1
# Procedure: as §1, §2
# [3] = tested on: human lung cancer NCI-H460 subcutaneous xenograft; assay: Human lung cancer NCI-H460 subcutaneous xenograft model, compound A; assay type: in vivo, BALB/c nude mice
# Procedure: BALB/c nude mice were subcutaneously inoculated with human lung cancer NCI-H460 cells to establish human lung cancer subcutaneous transplantation tumor model. […] The test drug compound A 40 mg/kg group was administered by tail vein injection once every three weeks for 2 times, and observed for one week after the second administration. The test drug compound A 20 mg/kg group was administered by intraperitoneal injection once a day for 5 days continuously, and observed for 24 days. […] The administration dosage of compound A was determined according to the MTD test.
# The tumor volumes of mice from each group were measured at different days and the average values were taken.
# NCI-H1792 = assay: Cytotoxicity, NSCLC cell line NCI-H1792; assay type: cell-based; conditions: Homo sapiens
# Procedure: as §1, §2
# QGP-1 = assay: Cytotoxicity, pancreatic cancer PA cells QGP-1; assay type: cell-based; conditions: Homo sapiens
# Procedure: as §1, §2
# NCIH2106 = assay: Cytotoxicity, NSCLC cell line NCIH2106; assay type: cell-based; conditions: Homo sapiens
# Procedure: as §1, §2
# KP-3 = assay: Cytotoxicity, pancreatic cancer PA cells KP-3; assay type: cell-based; conditions: Homo sapiens
# Procedure: as §1, §2
# PL45 = assay: Cytotoxicity, pancreatic cancer PA cells PL45; assay type: cell-based; conditions: Homo sapiens
# Procedure: as §1, §2
# Panc 02.03 = assay: Cytotoxicity, pancreatic cancer PA cells Panc 02.03; assay type: cell-based; conditions: Homo sapiens
# Procedure: as §1, §2
# [4] = Liver microsome stability, monkey
# Procedure: 1) Two individual experiments were performed.
# 1a) With NADPH: 10 μL of 20 mg/mL liver microsomes and 40 μL of 10 mM NADPH were added to the culture solution. The final concentrations of microsomes and NADPH were 0.5 mg/mL and 1 mM, respectively.
# 1b) Without NADPH: 10 μL of 20 mg/mL liver microsomes and 40 μL of ultrapure H2O were added to the culture solution. The final concentration of microsomes was 0.5 mg/mL.
# 3) 50 μL of aliquots were taken from the reaction solution at 0 min and 30 min. The reaction was terminated by adding 4 volumes of cold acetonitrile and four internal standards (IS, 100 nM alprazolam, 200 nM caffeine, 200 nM labetalol and 2 μM ketoprofen). The samples were centrifuged at 3, 220×g for 40 min. The aliquots of 100 μL of supernatant were mixed with 100 μL of ultrapure H2O and then used for LC-MS/MS analysis. All experiments were performed in duplicate.
compound,measurement,setting,value
"O=[N+]([O-])c1ccc([C@@H](OP(=O)(N2CC2)N2CC2)C(F)(F)F)c2ccccc12 (single isomer, unassigned) [Compound C]",median survival time,[1],19 days
same,mean biofluorescence value,[2]; 10 mg/kg tail vein QW×3,7.07E+05 photon/second
same,TGI,[2]; 10 mg/kg tail vein,99.82%
same,mean biofluorescence value,[2]; 20 mg/kg tail vein QW×3,1.79E+05 photon/second
same,TGI,[2]; 20 mg/kg tail vein,100.03%
same,mean biofluorescence value,[2]; 40 mg/kg tail vein QW×3,1.04E+05 photon/second
same,TGI,[2]; 40 mg/kg tail vein,100.05%
same,tolerability,"[2]; single drug, 10-40 mg/kg",well tolerated
same,IC50,H460 cancer cells,0.0769 µM
O=[N+]([O-])c1ccc(C(OP(=O)(N2CC2)N2CC2)C(F)(F)F)c2ccccc12 (racemic) [Compound A],IC50,NCI-H522,19.2 µM
same,IC50,NCIH1755,6.46 µM
same,IC50,AsPC-1,12.6 µM
same,relative tumor inhibition rate TGI (%),"[3]; 40 mg/kg, Q3W×2, IV, Day31",66.87%
same,tumor volume,"[3]; Test Group 7, 40 mg/kg IV, day 10",184.06 mm^3
same,tumor volume,"[3]; Test Group 7, 40 mg/kg IV, day 14",153.75 mm^3
same,tumor volume,"[3]; Test Group 7, 40 mg/kg IV, day 17",159.72 mm^3
same,tumor volume,"[3]; Test Group 7, 40 mg/kg IV, day 21",218.13 mm^3
same,tumor volume,"[3]; Test Group 7, 40 mg/kg IV, day 24",291.07 mm^3
same,tumor volume,"[3]; Test Group 7, 40 mg/kg IV, day 28",520.17 mm^3
same,tumor volume,"[3]; Test Group 7, 40 mg/kg IV, day 31",580.70 mm^3
same,tumor volume,"[3]; Test Group 7, 40 mg/kg IV, day 35",447.32 mm^3
same,tumor volume,"[3]; Test Group 7, 40 mg/kg, Q3W×2, IV, day 7",143.84 mm^3
same,tumor volume,"[3]; Test Group 8, 20 mg/kg IP, day 10",173.09 mm^3
same,tumor volume,"[3]; Test Group 8, 20 mg/kg IP, day 14",152.99 mm^3
same,tumor volume,"[3]; Test Group 8, 20 mg/kg IP, day 17",130.06 mm^3
same,tumor volume,"[3]; Test Group 8, 20 mg/kg IP, day 21",129.66 mm^3
same,tumor volume,"[3]; Test Group 8, 20 mg/kg IP, day 24",164.63 mm^3
same,tumor volume,"[3]; Test Group 8, 20 mg/kg IP, day 28",272.20 mm^3
same,tumor volume,"[3]; Test Group 8, 20 mg/kg IP, day 31",447.50 mm^3
same,tumor volume,"[3]; Test Group 8, 20 mg/kg IP, day 35",651.58 mm^3
same,tumor volume,"[3]; Test Group 8, 20 mg/kg, QD×5×1 week, IP, day 7",144.63 mm^3
same,IC50,NCI-H1792,4.79 µM
same,IC50,QGP-1,6.27 µM
same,IC50,NCIH2106,14.8 µM
same,IC50,KP-3,26.2 µM
same,IC50,PL45,17.1 µM
same,IC50,Panc 02.03,45.7 µM
CC(OP(=O)(N1CC1)N1CC1)c1ccc([N+](=O)[O-])c2ccccc12 (stereo not drawn) [Compound D],Remaining percentage after 30 minutes,[4]; with NADPH,0.86%
same,Remaining percentage after 30 minutes,[4]; without NADPH,95.89%
